US20090215851A1, “Method of Preparing a Porphyrin Derivative, a Porphyrin Derivative, Use of Said Porphyrin derivative and a pharmaceutical composition containing said porphyrin derivative” (PHOTOBIOCHEM N.V., priority 2005, published 2009)

What was measured:
[1] = system: A 549 lung carcinoma cells; experiment: Photodynamic cytotoxicity after illumination with white halogen light, MTT assay; type: cell-based; settings: 0.10 μg/ml
[2] = Photochemical singlet oxygen generation (emission at 1270 nm after laser excitation in toluene); type: physicochemical; settings: laser excitation 532 nm, singlet oxygen generating conditions
Procedure: Compound B dissolved in toluene was excited with a 9 mJ, 15 ns laser pulse at 532 nm from a home-built Q-switched frequency doubled Nd:YAG laser operating at 10 Hz. Emission from singlet oxygen at 1270 nm was detected at 90° to the quartz cuvette by an InGaAs photodiode, amplified and then signal-averaged (256 shots) on a digital oscilloscope (HP infinium). A 1260 nm interference filter (FWHM=75 nm) was used to protect the detector from laser light and sensitizer fluorescence. Typical decay times were 28±1 μs, which is characteristic for singlet oxygen decay in toluene (M. Okamoto et al, J. Phys. Chem., 1993, 97, pp. 177-180.) Tetraphenylporphyrin was used as a standard to determine the relative singlet oxygen yield (ΦΔ) (F. Wilkinson, et al, J. Phys. Chem. Ref. Data., 1993, 22, pp. 113-2162.). The relative quantum yield for compound 5 in air saturated toluene was 0.72. […] This stability of the compound according to the invention as exemplified by compound 5 towards singlet oxygen is surprising. In many porphyrins with appending double bonds the double bond reacts chemically with the singlet oxygen generated by the system. […]

[3] = system: A 549 lung carcinoma cells; experiment: Dark toxicity test, MTT assay; type: cell-based; settings: overnight in the dark at 37° C; concentrations up to 30 μg/ml
Procedure: First a toxicity test of compound 5 in cultures of A 549 lung carcinoma cells (American Type Culture Collection) was carried out in the dark. The cells were incubated in a medium containing compound 5 at various concentrations. The cultures were left overnight in the dark at 37° C. Using the MTT (3-(4,5-dimethylthiazol-2-yl)-2,5-diphenyltetrazolium bromide) assay based on the methods of Tada et al (J. Immunol. Meth., 1986, 93, pp. 157-165) and J. Carmichael et al (Cancer Res., 1987, 47, pp. 936-942.) the cell survival was obtained as a percentage of untreated cells of control (FIG. 2). Even at concentrations up to 30 μg/ml in the medium cell survival was complete (within the experimental error), showing that compound 5 is essentially not toxic towards the lung carcinoma cells in the dark.

CAM blood vessels = experiment: AMD model: CAM (chorioallantoic membrane) model in fertilized chicken eggs, PDT; type: in vivo
Procedure: Age-related Macula Degeneration (AMD) is an eye affliction that eventually leads to blindness. For studies to treat this affliction, an AMD model exists, the so-called CAM (chorioallantoic membrane) model in fertilized chicken eggs. The blood vessels in this chorioallantoic membrane mimic a number of relevant features characteristic for the blood vessels in the eye involved in causing AMD. Experiments with compound 7 were performed at the department of Professor Hubert van den Bergh of the EPFL in Lausanne. Different doses of compound 7 (dissolved in Water:PEG-400:1-Methyl-2-pyrrolidone (50:30:20 v/v), pH 8.1) were injected in the CAM blood vessels and the vessels were illuminated after an 1 minute time-to-treat interval using different amounts of light energy from a far red light source. In the experiments, Visudyne™ (which has an absorption peak at 690 nm), the only photosensitizer approved for clinical use in AMD, was used as the control.
Compound 7 was as potent (already with a low light dose of 24 J/cm^2 and 1 mg/kg of body weight of photosensitizer 7 the desired grade 3 vessel damage could be obtained) as Visudyne™ in closing blood vessels in this model. […] (Legend: A: Compound 7 fluorescence angiography before PDT; B: compound 7 fluorescence angiography during PDT, shown in the circle is the red light irradiation area; C: sulforhodamine 101 fluorescence angiography 18 hours post-treatment).

[4] = system: subcutaneous mammary CaNT tumors; experiment: Mouse tumor model, PDT; type: in vivo; settings: for persistence of phototoxic effect with time after injection (FIG. 9): different intervals between injection and illumination
Procedure: Experiments were performed to investigate the suitability of compound 7 for the photodynamic therapy (PDT) treatment of tumors, in particular subcutaneous mammary CaNT tumors. These experiments were performed by Photopharmica Ltd. under the guidance of Professor Stan Brown in the Centre for Photobiology and Photodynamic Therapy (Leeds, UK). Different doses of compound 7 (dissolved in Water:PEG-400:1-Methyl-2-pyrrolidone (50:30:20 v/v), with a maximum concentration of 0.5 mg/ml at pH 8.1) were intravenously injected and tumors were illuminated with red light (685±15 nm, 60 J/cm^2, 50 mW/cm^2) at different intervals after injection.

## 2′-cyano-8′-formyl-N-methyl-1,1a,5a,6-tetrahydroacrido-[4,5,5a,6-bcd]-annulated 2,3-dihydromesoporphyrin dimethylester [compound 5]
[1]; 4 hours incubation in the dark, then white halogen light 30 mW/cm^2 (270 kJ/m^2)
  lung carcinoma cells killed: 70%
[1]; 4 hours incubation, white halogen light 30 mW/cm^2 (270 kJ/m^2), FIG. 3
  photodynamic cytotoxicity compared with mTHPC (Foscan®): comparable
[2]
  photo degradation as measured by changes in the absorption spectrum: No photo degradation
[3]
  cell survival as a percentage of untreated cells (dark toxicity): complete

## 2′-cyano-8′-formyl-N′-methyl-1′,1a′,5a′,6′-tetrahydroacrido[4,5,5a,6-bcd]-annulated 2,3-dihydromesoporphyrin dicarboxylic acid [compound 7]
CAM blood vessels; 12 J/cm^2 at 1 mg/kg body weight, angiography 18 hours post-treatment
  effect of PDT on small CAM blood vessels (FIG. 7): closing of the small CAM blood vessels
CAM blood vessels; CAM model, far red light
  potency in closing blood vessels compared with Visudyne™: as potent
CAM blood vessels; fluorescence microscopy
  leakage from the CAM blood vessels compared with Visudyne™: much less leakage
CAM blood vessels; light dose 24 J/cm^2, 1 mg/kg of body weight, 1 minute time-to-treat interval
  vessel damage grade: 3 grade
[4]; after light treatment
  damage to internal tissue surrounding the tumor: comparable to Photofrin™
  damage to the skin overlaying the tumor, in contrast to Photofrin™: less damage
[4]; at the effective tumor dose, within 24 hours after drug administration
  skin photosensitivity: lacking skin photosensitivity
[4]
  persistence of phototoxic effect with time after injection (FIG. 9): vanishes rapidly in a couple of hours
[4]; drug-to-light interval 2 minutes
  PDT effect, light 2 minutes after injection: already present immediately
[4]; drug-to-light interval 180 minutes
  PDT effect, light 180 minutes after injection: virtually absent
[4]; intravenous, red light 685±15 nm, 60 J/cm^2, 50 mW/cm^2
  dose with good tumor killing potential in vivo: around 2.5 mg/kg
[4]; treatment with light a couple of hours after injection
  effect on tumor-necrosis and skin damage, light a couple of hours after injection: no effect

## Oc1cccc(-c2c3nc(c(-c4cccc(O)c4)c4ccc([nH]4)c(-c4cccc(O)c4)c4nc(c(-c5cccc(O)c5)c5ccc2[nH]5)CC4)C=C3)c1 [Foscan, mTHPC, reference compound]
[4]; mouse tumor model, estimated
  potency relative to compound 7: more potent than compound 7

## Photofrin™ [reference compound]
[4]; % necrotic area versus dose
  dose needed for the same percentage of necrotic area (FIG. 8), compared with compound 7: requires a higher dose for the same effect
[4]
  persistence of phototoxic effect with time after injection (FIG. 9): remains phototoxic after several hours
[4]; mouse tumor model, estimated
  potency relative to compound 7 (fold): 2.5 times less potent than compound 7
